Data: patent publication US20210137549A1, “DEVICE FOR CHEMICALLY ASSISTED DISSECTION” (AuXin Surgery SA, priority 2013, published 2021)
Where two headings read alike, the source gives them in different places.

Legend:
[1] = Stability study of Mesna powder in the presence of riboflavin 5′-phosphate sodium (weight, dry oven); type: physicochemical
Protocol: About 1.5 g of Mesna powder was accurately weighed, without or with 7 mg or 15 mg of riboflavin 5′-phosphate sodium, and placed in a dry oven at 20° C. for 1 month to test its stability (Table 6).

[2] = Stability study of solutions comprising Mesna and riboflavin 5′-phosphate sodium (HPLC quantification of Mesna); type: physicochemical; details: 4° C. and 20° C.
Protocol: A stability study was conducted for the purpose of evaluating a possible interaction between riboflavin 5′-phosphate sodium, a dye accepted for parenteral use in humans, and Mesna. […]
In order to validate the obtained data, a reference corresponding to a reconstituted solution of Mesna without riboflavin 5′-phosphate sodium was analyzed at the same time as the samples comprising riboflavin 5′-phosphate sodium (Table 5).

[3] = cited from earlier work
[4] = rats, intraduodenal administration compared with i.v.; cited from earlier work

For O=S(=O)([O-])CCS.[Na+] [1.5 g Mesna powder], the “W1 = weight after 1 month in dry oven at 20° C.” value ([1]; after 1 month in dry oven at 20° C., ± standard deviation) was 4.807 ± 0.016 g and the “W0 = weight before placement in dry oven at 20° C.” value ([1]; before placement in dry oven, ± standard deviation) was 4.907 ± 0.038 g.
With O=S(=O)([O-])CCS.[Na+] [Mesna, sodium 2-mercaptoethanesulfonate] the “stability of Mesna in dry form in the presence of riboflavin 5′-phosphate sodium (conclusion)” value ([1]; dry form, 1 month at 20° C.) was “stable” and the “variations in Mesna content after addition of riboflavin 5′-phosphate sodium” value ([2]; 0.23 mg/mL and 0.50 mg/mL RF5′PNa, before the 24 h point) was no more than 1%.
For CN(C)c1ccc2nc3ccc(=[N+](C)C)cc-3sc2c1 [methylene blue], the “effect of co-administration of mesna on pharmacokinetics” value ([3]; 100 mg methylene blue with and without mesna) is given as “did not alter the pharmacokinetics”, the “urinary excretion of methylene blue and its leucoform” value ([3]; i.v. administration (second value of the pair)) is given as 28 % dose and the “urinary excretion of methylene blue and its leucoform” value ([3]; oral administration (first value of the pair)) is given as 18 % dose. For the same molecule, the estimated terminal half-life ([3]; whole blood, i.v. administration of 100 mg, seven volunteers) was 5.25 h, the “area under the concentration-time curve” value ([3]; whole blood, i.v. administration of 100 mg) was 137 nmol/min/mL and the “area under the concentration-time curve” value ([3]; whole blood, oral administration of 100 mg) was 9 nmol/min/mL. For the same molecule, the “tissue concentrations after intraduodenal versus i.v. administration” value [4] was “higher concentrations in intestinal wall and liver but lower concentrations in whole blood and brain”.
For Cc1cc2nc3c(=O)[nH]c(=O)nc-3n(C[C@H](O)[C@H](O)[C@H](O)COP(=O)([O-])O)c2cc1C.[Na+] [riboflavin 5′-phosphate sodium], the “interaction of riboflavin 5′-phosphate sodium with Mesna in solution (conclusion)” value ([2]; phosphate buffer, 1 h and 24 h) was “does not interfere with or degrade Mesna”.
